4 molecules from patent US20250177285A1, “BANANA STEM SAP COMPOSITIONS AND METHODS OF USE THEREOF” (Tano Pharmaceuticals Inc., priority 2023, published 2025) can be followed below.

The target in one assay is T1, elastase (Sus scrofa, UniProt P00772).
T1 construct: purchased Promega V1891
The experiment in a line: Elastase activity assay. The assay is classed as biochemical, human. As for the experimental part: (§1) Test Materials. Test materials (Table 8) were stored at +4° C. and were diluted in distilled sterile water immediately before testing. All experimental conditions were tested in biological triplicates.
Elastase activity assay. The reaction was initiated by adding 10 μl of 20 μg/ml elastase enzyme (Promega, cat. #V1891, lot #409147) to the assay mixture [10 mM Tris-HCl pH 7.5+/−0.5, 1 mg/ml elastase substrate VIII (Suc-Ala-Ala-Ala-pNA)] containing different experimental conditions, and the reaction kinetics were monitored at room temperature by measuring absorbance at 405 nm in the SpectraMax i3x microplate reader. Sterile distilled water was the negative, and EI III (Calbiochem cat. #324745) was the positive control. […]. Colorimetric readings were adjusted by subtracting the absorbance in wells containing the same experimental conditions but without elastase and were expressed as % of water control.
(§2) Statistical analysis. Statistical significance threshold was established as minimum 20% modulation and p value <0.05 as determined by two-tailed Student test.

Assay [1] deals with type IV collagen output by normal human neonatal dermal fibroblasts. As to the kind of experiment: Type IV collagen output, ELISA of conditioned medium. The assay is classed as cell-based. Conditions: for effect on type IV collagen (in words): tested range. How it is done:
(§3) Test materials. Test materials (Table 2) were stored at +4° C. and were diluted in distilled sterile water immediately before testing. Cells & experimental procedures. Normal dermal human neonatal dermal fibroblasts (ScienCell; […] The next day (Day 1), test materials, reference substances [MAP (100 μg/ml), MAP (50 μg/ml) and niacinamide (400 μg/ml, 250 μg/ml and 80 μg/ml, based on PMC7950568 and PMC8622652)] and negative control (H2O) were added, and cell culture was pursued for three additional days, afterward the cell culture conditioned medium was used for type I & IV collagen quantification, while cells were formalin-fixed and type III collagen was measured by direct ELISA. The effect of the test articles on cell numbers was determined using the sulforhodamine B method (Table 3). MAP: magnesium ascorbyl phosphate. All colorimetric measurements were acquired using multi-mode SpectraMax i3x platform (Molecular Devices, San Jose CA) assisted with SoftMax 7.0.3. PRO. 21 software. […] [table]
(In general: ELISA stands for enzyme-linked immunosorbent assay.)

Assay [2] concerns type I collagen output by normal human neonatal dermal fibroblasts. As to the kind of experiment: Type I collagen output, sandwich ELISA of conditioned medium. Type of assay: cell-based. Conditions: for effect on type I collagen (in words): tested range. As for the experimental part: as §3
For assay [3], the system named is normal human neonatal dermal fibroblasts. As to the kind of experiment: Cell numbers, sulforhodamine B method. Type of assay: cell-based. How it is done:
as §3
For orientation: Sulforhodamine B stains cellular protein and so reports cell mass.

In assay [4] the test system is type III collagen output by normal human neonatal dermal fibroblasts. The experiment in a line: Type III collagen, direct ELISA on formalin-fixed cells. To be noted: for effect on type III collagen (in words): tested range. The assay is classed as cell-based. How it is done: as §3
The test system of assay [5] is Clostridium collagenase IV (a generic metalloproteinase). The experiment in a line: Metalloproteinase (collagenase) activity assay, Enzchek kit, quenched fluorescent gelatin. Type of assay: biochemical. How it is done: as §1
Metalloproteinase activity assay. The activity of the test materials towards collagenase proteolytic activity was examined by adding dilutions of test articles to the Enzchek kit reaction mixture (Molecular Probes/Invitrogen/ThermoFisher). Clostridium collagenase IV (a generic metalloproteinase) was used as the protease and quenched fluorescent gelatin was the substrate. Phenanthroline, a potent collagenase inhibitor was used as positive control at 1000 μM. The kinetics of the release of the digested, fluorescent gelatin were measured at excitation/emission wavelengths of 485/530 nm with the SpectraMax i3x microplate reader. Fluorescence readings were adjusted by subtracting the values in wells containing no collagenase and were expressed in arbitrary fluorescence units and as % of water-treated controls.
as §2

Marks after values point to notes of the source that are not given here. Residues, ends and D or L forms follow the SMILES beside them.

T1 sequence (P00772 27-266): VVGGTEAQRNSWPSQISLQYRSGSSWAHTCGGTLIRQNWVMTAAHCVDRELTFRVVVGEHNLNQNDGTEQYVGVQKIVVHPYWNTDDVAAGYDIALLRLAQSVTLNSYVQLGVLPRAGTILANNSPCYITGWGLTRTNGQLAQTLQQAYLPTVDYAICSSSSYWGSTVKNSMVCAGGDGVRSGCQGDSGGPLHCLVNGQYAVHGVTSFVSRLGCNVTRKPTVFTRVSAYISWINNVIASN

Take `COC(=O)CCC(=O)N[C@@H](C)C(=O)N[C@@H](C)C(=O)N1CCC[C@H]1C(=O)N[C@H](C(=O)CCl)C(C)C` [El III] (HELM PEPTIDE1{[COC(=O)CCC(=O)[*:2]].A.A.P.V.[ClC[*:1]]}$$$$V2.0): the “Elastase activity (% Control)” value on elastase (1 ug/mL, t = 20 min) is given as 9*** % Control. Also, the “suppressive effect on elastase activity (in words)” value on elastase (tested range) was “nearly complete inhibitory activity”.

Regarding `O=C1O[C@H]([C@@H](O)CO)C([O-])=C1OP(=O)([O-])[O-].O=C1O[C@H]([C@@H](O)CO)C([O-])=C1OP(=O)([O-])[O-].[Mg+2].[Mg+2].[Mg+2]` [MAP, magnesium ascorbyl phosphate], the results for the “Type IV collagen (% Control)” value in assay [1] (50 ug/mL) and in assay [1] (100 ug/mL) were 694 % Control and 703 % Control, respectively. Besides, the “effect on type IV collagen (in words)” value in assay [1] was “strong stimulatory response”. For the same molecule, the “Type I collagen (% Control)” value was found to be 148 % Control in assay [2] (50 ug/mL) and 166 % Control in assay [2] (100 ug/mL). In addition, in assay [2], the “effect on type I collagen (in words)” value is “strong stimulatory response”. The “Cell Numbers (% Control)” value in assay [3] (50 ug/mL) is 130 % Control; in assay [3] (100 ug/mL) it was 139 % Control. Also, the “Type III collagen (% Control)” value in assay [4] (50 ug/mL) is recorded as 1977 % Control; in assay [4] (100 ug/mL) it was 1874 % Control. Further, the “effect on type III collagen (in words)” value in assay [4] was “strong stimulatory response”.

Regarding `c1cnc2c(c1)ccc1cccnc12` [Phenanthroline], the “MP activity (% CTR)” value in assay [5] (positive control at 1000 μM, t = 20 min) is recorded as 0* % CTR. Also, the “inhibitory effect on collagenase (MP) / generic metalloproteinase activity (in words)” value in assay [5] (tested range) is given as “total inhibitory activity”.

Take `NC(=O)c1cccnc1` [niacinamide]: the entries for the “Type IV collagen (% Control)” value in assay [1] (80 ug/mL), in assay [1] (250 ug/mL) and in assay [1] (400 ug/mL) were 88 % Control, 86 % Control and 104 % Control, respectively. Further, the “effect on type IV collagen (in words)” value in assay [1] was “no effect”. In addition, the “Type I collagen (% Control)” value in assay [2] (80 ug/mL) is 94 % Control; in assay [2] (250 ug/mL), 130 % Control; in assay [2] (400 ug/mL), 130 % Control. In addition, in assay [2] (concentration not given), the “type I collagen increase / upregulation (description summary)” value is on record as “up to 130%”. Moreover, the “effect on type I collagen (in words)” value in assay [2] is “upregulated type I collagen at the two highest tested concentrations”. The “Cell Numbers (% Control)” value in assay [3] (80 ug/mL) is 99 % Control; in assay [3] (250 ug/mL) it was 99 % Control; in assay [3] (400 ug/mL), 96 % Control. In addition, the “Type III collagen (% Control)” value in assay [4] (80 ug/mL) is 106 % Control; in assay [4] (250 ug/mL), 106 % Control; in assay [4] (400 ug/mL) it was 111 % Control. The “effect on type III collagen (in words)” value in assay [4] is reported as “no effect”.
